{
  "source": "patent US20260191194A1",
  "about": "“OXABICYCLOALKANE COMPOUNDS, PREPARATION METHOD THEREFOR, AND HERBICIDAL COMPOSITION AND USE THEREOF” (QINGDAO KINGAGROOT CHEMICAL COMPOUND CO., LTD., priority 2022, published 2026)",
  "assay_type_in_all_cases": "in vivo",
  "key": {"Cyperus glomeratus [1]": {"test_system": "Cyperus glomeratus", "test": "Activity test of compositions, early post-emergence foliage spray (F-EP)", "details": "21 days after treatment", "procedure": "(§1) The required active ingredient B was purchased from a reagent company or synthesized by a known method. The technical materials were all dissolved with acetone solvents and diluted with an aqueous solution of 0.1% Tween 80 emulsifier, which were to be used immediately after dilution.\n(§2) Weeds were cultivated by a pot culture method. […] Weed seeds with plump and uniform grains were selected, soaked in lukewarm water at 25° C. for 6 hours, and accelerated to germinate in a 28° C. biochemical incubator (in darkness). The weed seeds that had just germinated were evenly placed on the surface of the soil and then covered with 0.5-1 cm soil according to the sizes of seeds.\n(§3) The culture was carried out in a controllable sunlight greenhouse at 20 to 30° C., in natural light, and with relative humidity of 57% to 72%.\n(§4) Each treatment was repeated 4 times. Four pots with 20 weed seeds sowed per pot were treated each time.\n(§5) The agents were used once in total in the experiment. In the stage of 1-2 leaves, the weeds were thinned out to maintain 10 strains per treatment for later use.\n(§6) The well-cultured test materials were evenly placed on a platform with an area of 0.5 m^2, and foliage spraying was carried out by the 3WP-2000-type walking spray tower at a dosage of 450 kg/ha and a spray pressure of 0.3 MPa. After all the solution was sprayed, the air valve was closed, and 30 seconds later, the door of the spray tower was opened, and the nutritional bowl was taken out. Then the air valve was opened, and the spray tube was cleaned by spraying 50 ml of water. The test materials were transferred to and routinely cultured in a greenhouse after the treatment.\n(§7) A method for investigating absolute numbers was employed. Whole seedlings of survival weeds were cut off with a blade along the soil surface, and the fresh weight of the weeds was weighed using an analytical balance. For dead weeds, the fresh weight thereof was zero.\n(§8) The investigation was performed 21 days after the treatment for once in total.\n(§9) The theoretical fresh weight inhibition rate of a mixed combination of each treatment was calculated by the Gowing method (E0=X+Y−X*Y/100). […] An optimal ratio was determined according to the actual control effects, characteristics of herbicides, and balance of the formulation. In the formula, X represents the fresh weight inhibition rate of the active ingredient A in a dosage of P; Y represents the fresh weight inhibition rate of the active ingredient B in a dosage of Q. The statistical results are shown in Table 4."}, "Soliva anthemifolia": {"test_system": "Soliva anthemifolia", "test": "Activity test of compositions, early post-emergence foliage spray (F-EP)", "details": "21 days after treatment", "procedure": "as §1, §2, §3, §4, §5, §6, §7, §8, §9"}, "Echinochloa glabrescens": {"test_system": "Echinochloa glabrescens", "test": "Activity test of compositions, soil sealing treatment (S)", "details": "21 days after treatment", "procedure": "as §1\n(§10) Weeds were cultivated in a controllable sunlight greenhouse at 20 to 30° C., in natural light, and with relative humidity of 57% to 72%. […] The test soil was quantitatively filled to 3/4 of the pot, and then watered from the bottom of the pot to completely wet the soil to saturation. The test weed seeds were accelerated to just germinate, and then evenly and quantitatively sowed on the soil surface, covered with 0.5-1 cm soil according to the sizes of the seeds, and ready for use 72 hours after sowing.\nas §4\nas §6, with “well-sowed” for “well-cultured”, “water.” for “water. The test materials were transferred to and routinely cultured in a greenhouse after the treatment.”\nas §7, §8, §9"}, "Arivela viscosa": {"test_system": "Arivela viscosa", "test": "Activity test of compositions, soil sealing treatment (S)", "details": "21 days after treatment", "procedure": "as §1, §10, §4\nas §6, with “well-sowed” for “well-cultured”, “water.” for “water. The test materials were transferred to and routinely cultured in a greenhouse after the treatment.”\nas §7, §8, §9"}, "[2]": {"test_system": "Echinochloa crus-galli var. austrojaponensis", "test": "Activity test of compositions, early post-emergence foliage spray (F-EP)", "details": "21 days after treatment; for pest or weed control at 300 g/ha: B alone 300 g a.i./ha", "procedure": "as §1, §2, §3, §4, §5, §6, §7, §8, §9"}, "Cyperus glomeratus [3]": {"test_system": "Cyperus glomeratus", "test": "Activity test of compositions, soil sealing treatment (S)", "details": "21 days after treatment", "procedure": "as §1, §10, §4\nas §6, with “well-sowed” for “well-cultured”, “water.” for “water. The test materials were transferred to and routinely cultured in a greenhouse after the treatment.”\nas §7, §8, §9"}, "Digitaria ischaemum": {"test_system": "Digitaria ischaemum", "test": "Activity test of compositions, soil sealing treatment (S)", "details": "B alone 300 g a.i./ha, 21 days after treatment", "text": "as §1\nThe test soil was quantitatively filled to 3/4 of the pot, and then watered from the bottom of the pot to completely wet the soil to saturation. The test weed seeds were accelerated to just germinate, and then evenly and quantitatively sowed on the soil surface, covered with 0.5-1 cm soil according to the sizes of the seeds, and ready for use 72 hours after sowing.\nas §4\nas §6, with “well-sowed” for “well-cultured”, “water.” for “water. The test materials were transferred to and routinely cultured in a greenhouse after the treatment.”\nas §7, §8, §9"}, "Oxybasis glauca": {"test_system": "Oxybasis glauca", "test": "Activity test of compositions, soil sealing treatment (S)", "details": "B alone 7.5 g a.i./ha, 21 days after treatment", "procedure": "as §1, §10, §4\nas §6, with “well-sowed” for “well-cultured”, “water.” for “water. The test materials were transferred to and routinely cultured in a greenhouse after the treatment.”\nas §7, §8, §9"}, "[4]": {"details": "B alone 30 g a.i./ha (with A 60)"}, "[5]": {"details": "Echinochloa crus-galli, 504 h, read-out: Control effect of B applied alone in a corresponding dose"}},
  "data": [
    {"compound": "CCC(=O)Nc1ccc(Cl)c(Cl)c1", "note": "[propanil]", "values": [
      {"measurement": "Control effect of B applied alone in a corresponding dose", "setting": "Cyperus glomeratus [1]; B alone 900 g a.i./ha", "result": 19.7}
    ]},
    {"compound": "Cc1cc(Cl)ccc1OCC(=O)OCCCCCC(C)C", "note": "[MCPA-isooctyl]", "values": [
      {"measurement": "Control effect of B applied alone in a corresponding dose", "setting": "Soliva anthemifolia; B alone 300 g a.i./ha", "result": 65, "unit": "%"}
    ]},
    {"compound": "CCCCOCN(C(=O)CCl)c1c(CC)cccc1CC", "note": "[butachlor]", "values": [
      {"measurement": "Control effect of B applied alone in a corresponding dose", "setting": "Echinochloa glabrescens; B alone 300 g a.i./ha", "result": 41.3}
    ]},
    {"compound": "CCN(C(=O)n1nnn(-c2ccccc2Cl)c1=O)C1CCCCC1", "note": "[fentrazamide]", "values": [
      {"measurement": "Control effect of B applied alone in a corresponding dose", "setting": "Echinochloa glabrescens; B alone 75 g a.i./ha", "result": 40.3}
    ]},
    {"compound": "CC(C)N1C(=O)c2ccccc2NS1(=O)=O", "note": "[bentazone]", "values": [
      {"measurement": "Control effect of B applied alone in a corresponding dose", "setting": "Cyperus glomeratus [1]; B alone 300 g a.i./ha", "result": 43.8}
    ]},
    {"compound": "CC1(C)CON(Cc2ccc(Cl)cc2Cl)C1=O", "note": "[bixlozone]", "values": [
      {"measurement": "Control effect of B applied alone in a corresponding dose", "setting": "Arivela viscosa; B alone 120 g a.i./ha", "result": 74.5, "unit": "%"}
    ]},
    {"compound": "CS(=O)(=O)c1cc(C(F)(F)F)ccc1C(=O)c1cnoc1C1CC1", "note": "[isoxaflutole]", "values": [
      {"measurement": "pest or weed control at 30 g/ha", "setting": "[2]; Echinochloa crus-galli, 504 h, B alone 30 g a.i./ha (with A 60), read-out: Control effect of B applied alone in a corresponding dose", "result": 47.8, "unit": "%"}
    ]},
    {"compound": "Nc1c(Cl)c(F)nc(OCC(=O)O)c1Cl", "note": "[fluroxypyr]", "values": [
      {"measurement": "Control effect of B applied alone in a corresponding dose", "setting": "Soliva anthemifolia; B alone 75 g a.i./ha", "result": 66.7, "unit": "%"}
    ]},
    {"compound": "COC(=O)c1ccccc1CS(=O)(=O)NC(=O)Nc1nc(OC)cc(OC)n1", "note": "[bensulfuronmethyl, bensulfuron-methyl]", "values": [
      {"measurement": "Control effect of B applied alone in a corresponding dose", "setting": "Cyperus glomeratus [3]; B alone 7.5 g a.i./ha", "result": 27.5, "unit": "%"}
    ]},
    {"compound": "CCOCN(C(=O)CCl)c1c(C)cccc1CC", "note": "[acetochlor]", "values": [
      {"measurement": "Control effect of B applied alone in a corresponding dose", "setting": "Digitaria ischaemum", "result": 41.3}
    ]},
    {"compound": "CC(C)N(C(=O)SCC(Cl)=C(Cl)Cl)C(C)C", "note": "[triallate]", "values": [
      {"measurement": "Control effect of B applied alone in a corresponding dose", "setting": "Digitaria ischaemum", "result": 38.4}
    ]},
    {"compound": "CC1(C)CON(Cc2ccccc2Cl)C1=O", "note": "[clomazone]", "values": [
      {"measurement": "Control effect of B applied alone in a corresponding dose", "setting": "Arivela viscosa; B alone 75 g a.i./ha", "result": 70.6, "unit": "%"}
    ]},
    {"compound": "CCOc1cc(Oc2ccc(C(F)(F)F)cc2Cl)ccc1[N+](=O)[O-]", "note": "[oxyfluorfen]", "values": [
      {"measurement": "Control effect of B applied alone in a corresponding dose", "setting": "Cyperus glomeratus [3]; B alone 45 g a.i./ha", "result": 37.2, "unit": "%"}
    ]},
    {"compound": "CCn1ncc(C(=O)c2ccc(S(C)(=O)=O)c(COCC(F)(F)F)c2Cl)c1OC(=O)c1cn(C)nc1C", "note": "[fenpyrazone]", "values": [
      {"measurement": "Control effect of B applied alone in a corresponding dose", "setting": "[2]; [4]", "result": 53.1, "unit": "%"}
    ]},
    {"compound": "CC(C)CCCCCOC(=O)COc1ccc(Cl)cc1Cl", "note": "[2,4-D-isooctyl]", "values": [
      {"measurement": "Control effect of B applied alone in a corresponding dose", "setting": "Soliva anthemifolia; B alone 225 g a.i./ha", "result": 61.4, "unit": "%"}
    ]},
    {"compound": "COc1cnc(OC)n2nc(NS(=O)(=O)c3c(OCC(F)F)cccc3C(F)(F)F)nc12", "note": "[penoxsulam]", "values": [
      {"measurement": "Control effect of B applied alone in a corresponding dose", "setting": "Cyperus glomeratus [3]; B alone 7.5 g a.i./ha", "result": 26.4, "unit": "%"}
    ]},
    {"compound": "CSc1nnc(C(C)(C)C)c(=O)n1N", "note": "[metribuzin]", "values": [
      {"measurement": "pest or weed control at 150 g/ha", "setting": "[2]; Echinochloa crus-galli, 504 h, B alone 150 g a.i./ha, read-out: Control effect of B applied alone in a corresponding dose", "result": 42.9, "unit": "%"}
    ]},
    {"compound": "CSc1nc(NC(C)C)nc(NC(C)C)n1", "note": "[prometryn]", "values": [
      {"measurement": "pest or weed control at 300 g/ha", "setting": "[2]; [5]", "result": 41, "unit": "%"}
    ]},
    {"compound": "CC1=C(c2ccccc2)C(=O)N(C(C)(C)c2cc(Cl)cc(Cl)c2)CO1", "note": "[oxaziclomefone]", "values": [
      {"measurement": "Control effect of B applied alone in a corresponding dose", "setting": "Cyperus glomeratus [3]; B alone 22.5 g a.i./ha", "result": 58.5, "unit": "%"}
    ]},
    {"compound": "CC(C)c1ccc(NC(=O)N(C)C)cc1", "note": "[isoproturon]", "values": [
      {"measurement": "pest or weed control at 300 g/ha", "setting": "[2]; [5]", "result": 31.3, "unit": "%"}
    ]},
    {"compound": "Cc1nn(C)cc1C(=O)Oc1c(C(=O)c2ccc(C(F)(F)F)cc2S(C)(=O)=O)c(C)nn1C", "note": "[bipyrazone]", "values": [
      {"measurement": "Control effect of B applied alone in a corresponding dose", "setting": "[2]; [4]", "result": 52.7, "unit": "%"}
    ]},
    {"compound": "C#CCN(C)c1c(C#N)cnn1-c1nn2c(c1Cl)CCCC2", "note": "[pyraclonil]", "values": [
      {"measurement": "Control effect of B applied alone in a corresponding dose", "setting": "Cyperus glomeratus [3]; B alone 45 g a.i./ha", "result": 48.6, "unit": "%"}
    ]},
    {"compound": "COC(=O)c1sccc1S(=O)(=O)NC(=O)Nc1nc(C)nc(OC)n1", "note": "[thifensulfuronmethyl, thifensulfuron-methyl]", "values": [
      {"measurement": "Control effect of B applied alone in a corresponding dose", "setting": "Oxybasis glauca", "result": 68.6}
    ]},
    {"compound": "Cc1ccc(NC(=O)N(C)C)cc1Cl", "note": "[chlorotoluron]", "values": [
      {"measurement": "pest or weed control at 450 g/ha", "setting": "[2]; Echinochloa crus-galli, 504 h, B alone 450 g a.i./ha, read-out: Control effect of B applied alone in a corresponding dose", "result": 37.6, "unit": "%"}
    ]}
  ]
}
